Measurements: US20260041661A1, “THREE-COMPONENT PRODRUG, PHARMACEUTICAL COMPOSITION THEREOF, AND MEDICAL USE THEREOF” (J2H BIOTECH INC., priority 2022, published 2026)
Where a name gives a salt, the structure may show the parent alone.

Key:
[1] = cited from earlier work
[2] = RRMS patients, DRF 462 mg twice daily for 5 weeks; cited from earlier work
[3] = system: EAE mice (experimental autoimmune encephalomyelitis); assay: Efficacy in EAE animal model of multiple sclerosis: clinical score; assay type: in vivo, C57BL/6 mice; settings: for Clinical Score (Day 21): day 2-21, score 0 to 5, vehicle group 3.2
[4] = system: CD4 T cells, CD8 T cells, Th1 cells and Th17 cells; assay: Immune cell infiltration in EAE mice by flow cytometry; assay type: in vivo, C57BL/6 mice; settings: for CD8 T Cell (%) / CD4 T Cell (%): tissue not given; for CD8 T Cell (%): vehicle group 16.0; for CD4 T Cell (%): vehicle group 23.2; for Th17 Cell (%): vehicle group 12.4; for Th1 Cell (%): vehicle group 15.4
[5] = system: prostaglandin D2 (PGD2); assay: Toxicity evaluation: flushing side effect by blood prostaglandin D2 concentration (ELISA); assay type: in vivo; settings: C57BL6 male mice, 165.6 mg/kg vs DMF 60 mg/kg, 5 minutes after administration
Procedure: The flushing phenomenon was confirmed through analysis of the concentration of prostaglandin D2 (PGD2) in the blood. PGD2 is a bio-derived substance closely related to the flushing phenomenon, and the concentration analysis of PGD2 in the blood is known as a standard test method for predicting the side effects of drugs. (The journal of pharmacology and experimental therapeutics, 2008, 327(3), 665.) The test method was conducted by dividing C57BL6 male mice into three groups as test animals. […] PGD2 present in the collected blood was measured using an Elisa kit (#CSB-E14022m, CUSABIO).

[6] = EVOLVE-MS-1 phase 3 clinical program

**Q.** Which “Subjects who discontinued administration” value [1, 6] does the source give for `COC(=O)/C=C/C(=O)OCCN1C(=O)CCC1=O` [diroximel fumarate] here?
**A.** The value was 14.9%.

**Q.** What about the “Subjects who discontinued due to drug-induced side effects” value [1, 6] of the same compound?
**A.** The value was 6.3%.

**Q.** What about the “Incidence of gastrointestinal side effects (GI TEAEs)” value ([1]; all patients administered DRF, phase 3 clinical trials) of the same compound?
**A.** Its value is “more than 30%”.

**Q.** What about the “Decrease of incidence of gastrointestinal side effects compared to DMF group” value ([1]; phase 3 clinical trials, vs the 40% incidence with DMF) of the same compound?
**A.** The value was 10%.

**Q.** What about the “Diarrhea, frequency reported” value [2] of the same compound?
**A.** Its value is 15.4%.

**Q.** And the “Flushing, frequency reported” value [2]?
**A.** The value was 32.8%.

**Q.** And the “Nausea, frequency reported” value [2]?
**A.** Its value is 14.6%.

**Q.** With `COC(=O)/C=C/C(=O)OC` [Dimethyl fumarate] as the compound, how does the “Clinical Score (Day 21)” value ([3]; DMF 30 mpk oral twice a day) read?
**A.** Its value is 2.3.

**Q.** What about the “Clinical Score (Day 21)” value ([3]; DMF 60 mpk oral twice a day) of the same compound?
**A.** The value was 1.3.

**Q.** What about the “Severity of the disease (clinical score) vs negative control” value ([3]; low (G3, 30 mg/kg) and high (G4, 60 mg/kg) dose) of the same compound?
**A.** The value was “significantly reduced the severity of the disease”.

**Q.** What about the “CD8 T Cell (%)” value ([4]; DMF 30 mpk) of the same compound?
**A.** Its value is 8.8%.

**Q.** And the “CD4 T Cell (%)” value ([4]; DMF 30 mpk)?
**A.** The value was 13.1%.

**Q.** What about the “Th17 Cell (%)” value ([4]; DMF 30 mpk) of the same compound?
**A.** The value was 10.1%.

**Q.** What about the “Th1 Cell (%)” value ([4]; DMF 30 mpk) of the same compound?
**A.** The value was 10.2%.

**Q.** And the “CD8 T Cell (%)” value ([4]; DMF 60 mpk)?
**A.** Its value is 8.5%.

**Q.** What about the “CD4 T Cell (%)” value ([4]; DMF 60 mpk) of the same compound?
**A.** The value was 13.8%.

**Q.** And the “Th17 Cell (%)” value ([4]; DMF 60 mpk)?
**A.** Its value is 6.3%.

**Q.** And the “Th1 Cell (%)” value ([4]; DMF 60 mpk)?
**A.** The value was 7.9%.

**Q.** With `COC(=O)/C=C/C(=O)Oc1ccc(COC(=O)c2ccccc2OC(C)=O)cc1` [Example 1, 4-((acetoxybenzoyloxy)methyl)phenyl Methyl Fumarate] as the compound, how does the “Clinical Score (Day 21)” value ([3]; chemical formula 1 82.8 mpk oral twice a day) read?
**A.** Its value is 2.0.

**Q.** And the “Clinical Score (Day 21)” value ([3]; chemical formula 1 165.6 mpk oral twice a day)?
**A.** Its value is 1.5.

**Q.** What about the Clinical score improvement ([3]; low dose (G5, 82.8 mg/kg) and high dose (G6, 165.6 mg/kg)) of the same compound?
**A.** The Clinical score improvement was “significant clinical score improvement effects”.

**Q.** And the “Infiltration rate of CD4 and CD8 T cells in the lymph nodes compared to disease-induced group (G2)” value ([4]; FIG. 1, low-dose (G5) and high-dose (G6))?
**A.** The value was “significant decrease”.

**Q.** And the “Infiltration rate of CD4 and CD8 T cells in the central nervous system compared to disease-induced group (G2)” value ([4]; FIG. 2, low-dose (G5) and high-dose (G6))?
**A.** The value was “significant decrease”.

**Q.** And the “Infiltration rate of Th1 and Th17 cells in the lymph nodes compared to disease-induced group (G2)” value ([4]; FIG. 3, low-dose (G5) and high-dose (G6))?
**A.** The value was “decrease”.

**Q.** And the “CD8 T Cell (%)” value ([4]; chemical formula 1 82.8 mpk)?
**A.** Its value is 7.8%.

**Q.** What about the “CD4 T Cell (%)” value ([4]; chemical formula 1 82.8 mpk) of the same compound?
**A.** Its value is 11.2%.

**Q.** What about the “Th17 Cell (%)” value ([4]; chemical formula 1 82.8 mpk) of the same compound?
**A.** Its value is 8.8%.

**Q.** And the “Th1 Cell (%)” value ([4]; chemical formula 1 82.8 mpk)?
**A.** The value was 8.8%.

**Q.** And the “CD8 T Cell (%)” value ([4]; chemical formula 1 165.6 mpk)?
**A.** Its value is 4.7%.

**Q.** What about the “CD4 T Cell (%)” value ([4]; chemical formula 1 165.6 mpk) of the same compound?
**A.** The value was 6.5%.

**Q.** What about the “Th17 Cell (%)” value ([4]; chemical formula 1 165.6 mpk) of the same compound?
**A.** The value was 7.5%.

**Q.** And the “Th1 Cell (%)” value ([4]; chemical formula 1 165.6 mpk)?
**A.** The value was 6.4%.

**Q.** And the “Decrease of blood PGD2 compared to the group administered with dimethyl fumarate” value [5]?
**A.** The value was 76.6%.
